Reference: PubChem BioAssay AID602480 (National Center for Advancing Translational Sciences (NCATS), 2012)
Converted amounts (≈) assume the structure as drawn.

System: aqueous solubility in PBS
Test: qHTS Assay for Inhibitors of Bacillus subtilis Sfp phosphopantetheinyl transferase (PPTase): Aqueous Solubility in PBS
Text: PPTases are responsible for the activation of a variety of pathogen-associated virulence factors. Among these compounds are toxins such as mycolactone from Mycobacterium ulcerans, siderophores such as vibriobactin from Vibrio cholerae or mycobactin from Mycobacterium tuberculosis, as well as the mycolic acids which form the waxy cell wall of Mycobacteria. The biosyntheses of these natural products are considered attractive targets for drug design. After a large qHTS and several follow-up assays, a small molecule was identified and this in vitro ADME assay serves to better characterize its properties.
This profiling assay looks at the […] of a small molecule in PBS (pH 7.4). This is an important parameter as it has significant impact on in vivo results, such as uptake, distribution, transport, and eventually bioavailability. This outcome is also of utmost importance for decisions concerning assay data and SAR strategy.
NIH Chemical Genomics Center [NCGC]
NIH Molecular Libraries Probe Centers Network [MLPCN]
Assay Submitter (PI): Michale Burkart, University of California, San Diego
1. 8ul of reference and test compound stock solution were added to 392ul 100mM phosphate buffer (pH 7.4)
2. Sample tubes were shaken for 1 hr (1000 rpm) at room temperature
3. […]
5. Concentration of the supernatant was determined by LC-UV or LC-MS/MS

solubility: 20 µM (≈ 8.64 µg/mL)
Structure (SMILES): COc1ccnc(NC(=S)N2CCN(c3ncc(C(F)(F)F)cc3Cl)CC2)c1
